Data as given in patent publication US20140343000A1 (priority 2011, published 2014).

tested on: recombinant NL4-3 virus (Renilla luciferase in nef, Gag P373S; NLRluc) in MT-2 cells; experiment: whole plant or invertebrate; assay type: cell-based, HIV; conditions: Renilla, NL43
Method in brief: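 MT-2 cells infected 4–5 days with NL4-3 carrying Renilla luciferase in nef and Gag P373S, with serial dilutions of inhibitor present. Antiviral activity quantified by luciferase activity, using Dual Luciferase reagents premixed with lysis buffer and read immediately.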

SMILES	EC50
C=C(C)[C@@H]1CC[C@]2(NCCNc3cccnn3)CC[C@]3(C)[C@H](CC[C@@H]4[C@@]5(C)CC=C(c6ccc(C(=O)O)cc6)C(C)(C)[C@@H]5CC[C@]43C)[C@@H]12 [Example 200, 4-((1R,3aS,5aR,5bR,7aR,11aS,11bR,13aR,13bR)-5a,5b,8,8,11a-pentamethyl-1-(prop-1-en-2-yl)-3a-(2-(pyridazin-3-ylamino)ethylamino)-2,3,3a,4,5,5a,5b,6,7,7a,8,11,11a,11b,12,13,13a,13b-octadecahydro-1H-cyclopenta[a]chrysen-9-yl)benzoic acid]	< 100 nM

same assay, conditions: Renilla, NL43, luciferase activity in cells infected for 4-5 days with NLRluc recombinants, serial dilutions of inhibitor; class symbols (key in Table 1); read-out: EC50

SMILES	EC50
C=C(C)[C@@H]1CC[C@]2(NC(=O)CN3CCN(C(C)C)CC3)CC[C@]3(C)[C@H](CC[C@@H]4[C@@]5(C)CC=C(c6ccc(C(=O)O)cc6)C(C)(C)[C@@H]5CC[C@]43C)[C@@H]12 [Example 96, 4-((1R,3aS,5aR,5bR,7aR,11aS,11bR,13aR,13bR)-3a-(2-(4-isopropylpiperazin-1-yl)acetamido)-5a,5b,8,8,11a-pentamethyl-1-(prop-1-en-2-yl)-2,3,3a,4,5,5a,5b,6,7,7a,8,11,11a,11b,12,13,13a,13b-octadecahydro-1H-cyclopenta[a]chrysen-9-yl)benzoic acid]	< 100 nM
C=C(C)[C@@H]1CC[C@]2(NC(=O)CCN(C)C)CC[C@]3(C)[C@H](CC[C@@H]4[C@@]5(C)CC=C(c6ccc(C(=O)O)cc6)C(C)(C)[C@@H]5CC[C@]43C)[C@@H]12 [Example 73, 4-((1R,3aS,5aR,5bR,7aR,11aS,11bR,13aR,13bR)-3a-(3-(dimethylamino)propanamido)-5a,5b,8,8,11a-pentamethyl-1-(prop-1-en-2-yl)-2,3,3a,4,5,5a,5b,6,7,7a,8,11,11a,11b,12,13,13a,13b-octadecahydro-1H-cyclopenta[a]chrysen-9-yl)benzoic acid]	< 100 nM
C=C(C)[C@@H]1CC[C@]2(NC(=O)CN3C[C@@H](C)O[C@@H](C)C3)CC[C@]3(C)[C@H](CC[C@@H]4[C@@]5(C)CC=C(c6ccc(C(=O)O)cc6)C(C)(C)[C@@H]5CC[C@]43C)[C@@H]12 [Example 83, 4-((1R,3aS,5aR,5bR,7aR,11aS,11bR,13aR,13bR)-3a-(2-((2S,6R)-2,6-dimethylmorpholino)acetamido)-5a,5b,8,8,11a-pentamethyl-1-(prop-1-en-2-yl)-2,3,3a,4,5,5a,5b,6,7,7a,8,11,11a,11b,12,13,13a,13b-octadecahydro-1H-cyclopenta[a]chrysen-9-yl)benzoic acid]	< 100 nM
C=C(C)[C@@H]1CC[C@]2(NC(=O)N(C)CCn3ccc4ccccc43)CC[C@]3(C)[C@H](CC[C@@H]4[C@@]5(C)CC=C(c6ccc(C(=O)O)cc6)C(C)(C)[C@@H]5CC[C@]43C)[C@@H]12 [Example 48, 4-((1R,3aS,5aR,5bR,7aR,11aS,11bR,13aR,13bR)-3a-(3-(2-(1H-indol-1-yl)ethyl)-3-methylureido)-5a,5b,8,8,11a-pentamethyl-1-(prop-1-en-2-yl)-2,3,3a,4,5,5a,5b,6,7,7a,8,11,11a,11b,12,13,13a,13b-octadecahydro-1H-cyclopenta[a]chrysen-9-yl)benzoic acid]	< 100 nM
CC(C)[C@@H]1CC[C@]2(NCCCN3CCOCC3)CC[C@]3(C)[C@H](CC[C@@H]4[C@@]5(C)CC=C(c6ccc(C(=O)O)cc6)C(C)(C)[C@@H]5CC[C@]43C)[C@@H]12 [Example B11, 4-((1S,3aS,5aR,5bR,7aR,11aS,11bR,13aR,13bR)-1-isopropyl-5a,5b,8,8,11a-pentamethyl-3a-((3-morpholinopropyl)amino)-2,3,3a,4,5,5a,5b,6,7,7a,8,11,11a,11b,12,13,13a,13b-octadecahydro-1H-cyclopenta[a]chrysen-9-yl)benzoic acid]	< 100 nM
C=C(C)[C@@H]1CC[C@]2(NC(=O)N(CCN3CCOCC3)CC(=O)O)CC[C@]3(C)[C@H](CC[C@@H]4[C@@]5(C)CC=C(c6ccc(C(=O)O)cc6)C(C)(C)[C@@H]5CC[C@]43C)[C@@H]12 [Example 53, 4-((1R,3aS,5aR,5bR,7aR,11aS,11bR,13aR,13bR)-3a-(3-(carboxymethyl)-3-(2-morpholinoethyl)ureido)-5a,5b,8,8,11a-pentamethyl-1-(prop-1-en-2-yl)-2,3,3a,4,5,5a,5b,6,7,7a,8,11,11a,11b,12,13,13a,13b-octadecahydro-1H-cyclopenta[a]chrysen-9-yl)benzoic acid]	< 100 nM
C=C(C)[C@@H]1CC[C@]2(NCCN3CCN(S(=O)(=O)c4cccnc4)CC3)CC[C@]3(C)[C@H](CC[C@@H]4[C@@]5(C)CC=C(c6ccc(C(=O)O)cc6)C(C)(C)[C@@H]5CC[C@]43C)[C@@H]12 [Example B36, 4-((1R,3aS,5aR,5bR,7aR,11aS,11bR,13aR,13bR)-5a,5b,8,8,11a-pentamethyl-1-(prop-1-en-2-yl)-3a-((2-(4-(pyridin-3-ylsulfonyl)piperazin-1-yl)ethyl)amino)-2,3,3a,4,5,5a,5b,6,7,7a,8,11,11a,11b,12,13,13a,13b-octadecahydro-1H-cyclopenta[a]chrysen-9-yl)benzoic acid]	< 100 nM
C=C(C)[C@@H]1CC[C@]2(NC(=O)N3CCNC(=O)C3)CC[C@]3(C)[C@H](CC[C@@H]4[C@@]5(C)CC=C(c6ccc(C(=O)O)cc6)C(C)(C)[C@@H]5CC[C@]43C)[C@@H]12 [Example 57, 4-((1R,3aS,5aR,5bR,7aR,11aS,11bR,13aR,13bR)-5a,5b,8,8,11a-pentamethyl-3a-(3-oxopiperazine-1-carboxamido)-1-(prop-1-en-2-yl)-2,3,3a,4,5,5a,5b,6,7,7a,8,11,11a,11b,12,13,13a,13b-octadecahydro-1H-cyclopenta[a]chrysen-9-yl)benzoic acid]	< 100 nM
C=C(C)[C@@H]1CC[C@]2(NCCC(=O)O)CC[C@]3(C)[C@H](CC[C@@H]4[C@@]5(C)CC=C(c6ccc(C(=O)O)cc6)C(C)(C)[C@@H]5CC[C@]43C)[C@@H]12 [Example B12, 4-((1R,3aS,5aR,5bR,7aR,11aS,11bR,13aR,13bR)-3a-((2-carboxyethyl)amino)-5a,5b,8,8,11a-pentamethyl-1-(prop-1-en-2-yl)-2,3,3a,4,5,5a,5b,6,7,7a,8,11,11a,11b,12,13,13a,13b-octadecahydro-1H-cyclopenta[a]chrysen-9-yl)benzoic acid]	< 100 nM
C=C(C)[C@@H]1CC[C@]2(NC(=O)N(CCN)CC(=O)O)CC[C@]3(C)[C@H](CC[C@@H]4[C@@]5(C)CC=C(c6ccc(C(=O)O)cc6)C(C)(C)[C@@H]5CC[C@]43C)[C@@H]12 [Example 58, 4-((1R,3aS,5aR,5bR,7aR,11aS,11bR,13aR,13bR)-3a-(3-(2-aminoethyl)-3-(carboxymethyl)ureido)-5a,5b,8,8,11a-pentamethyl-1-(prop-1-en-2-yl)-2,3,3a,4,5,5a,5b,6,7,7a,8,11,11a,11b,12,13,13a,13b-octadecahydro-1H-cyclopenta[a]chrysen-9-yl)benzoic acid]	< 100 nM

same assay, conditions: Renilla, NL43, luciferase activity in cells infected for 4-5 days with NLRluc recombinants, serial dilutions of inhibitor; numeric values; read-out: EC50

SMILES	EC50
C=C(C)[C@@H]1CC[C@]2(NC(=O)NCCN(C)C)CC[C@]3(C)[C@H](CC[C@@H]4[C@@]5(C)CC=C(c6ccc(C(=O)O)cc6)C(C)(C)[C@@H]5CC[C@]43C)[C@@H]12 [Example 3, 4-((1R,3aS,5aR,5bR,7aR,11aS,11bR,13aR,13bR)-3a-(3-(2-(dimethylamino)ethyl)ureido)-5a,5b,8,8,11a-pentamethyl-1-(prop-1-en-2-yl)-2,3,3a,4,5,5a,5b,6,7,7a,8,11,11a,11b,12,13,13a,13b-octadecahydro-1H-cyclopenta[a]chrysen-9-yl)benzoic acid]	4 nM
